Experiments:
[1] = target: T1, orexin-1 receptor (OX1R) (Rattus norvegicus, UniProt P56718); assay: antagonism of Orexin-A-induced [3H]inositol phosphates accumulation in RBL cells stably expressing rat OX1R; format: cell-based
T1 construct: gene Hcrtr1
T1 sequence (P56718 1-416): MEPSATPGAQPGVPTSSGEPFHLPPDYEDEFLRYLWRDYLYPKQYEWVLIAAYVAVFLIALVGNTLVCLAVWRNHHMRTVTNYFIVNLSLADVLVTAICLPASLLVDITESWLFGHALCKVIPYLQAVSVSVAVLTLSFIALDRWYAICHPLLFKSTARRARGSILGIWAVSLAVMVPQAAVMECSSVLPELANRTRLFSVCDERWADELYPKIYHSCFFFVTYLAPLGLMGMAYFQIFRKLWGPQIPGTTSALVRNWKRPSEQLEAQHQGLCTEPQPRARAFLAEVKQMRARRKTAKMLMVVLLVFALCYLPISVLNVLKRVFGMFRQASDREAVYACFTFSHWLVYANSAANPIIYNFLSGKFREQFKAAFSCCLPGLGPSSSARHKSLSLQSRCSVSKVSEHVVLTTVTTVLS

[2] = target: T2, orexin-2 receptor (OX2R) (Rattus norvegicus, UniProt P56719); assay: antagonism of Orexin-A-induced [3H]inositol phosphates accumulation in RBL cells stably expressing rat OX2R (Schild analysis); format: cell-based
T2 construct: gene Hcrtr2
T2 sequence (P56719 1-460): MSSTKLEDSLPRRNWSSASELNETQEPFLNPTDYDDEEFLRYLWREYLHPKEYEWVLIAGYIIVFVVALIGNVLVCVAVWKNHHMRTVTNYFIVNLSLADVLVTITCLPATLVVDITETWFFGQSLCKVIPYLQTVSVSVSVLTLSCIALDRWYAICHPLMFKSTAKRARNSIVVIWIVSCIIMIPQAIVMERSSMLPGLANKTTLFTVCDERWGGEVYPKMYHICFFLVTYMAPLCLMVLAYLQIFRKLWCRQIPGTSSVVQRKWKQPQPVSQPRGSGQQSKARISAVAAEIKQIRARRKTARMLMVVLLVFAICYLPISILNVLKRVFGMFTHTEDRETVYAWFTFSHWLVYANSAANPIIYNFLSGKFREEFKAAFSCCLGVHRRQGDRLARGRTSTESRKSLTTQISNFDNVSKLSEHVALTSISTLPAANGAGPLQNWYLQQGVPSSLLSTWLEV

[3] = target: T3, κ-opioid (KOP) receptor (Homo sapiens, UniProt P41145); assay: CEREP/Bioprint binding assay panel (human isoforms)
T3 construct: gene OPRK1
T3 sequence (P41145 whole entry, canonical isoform): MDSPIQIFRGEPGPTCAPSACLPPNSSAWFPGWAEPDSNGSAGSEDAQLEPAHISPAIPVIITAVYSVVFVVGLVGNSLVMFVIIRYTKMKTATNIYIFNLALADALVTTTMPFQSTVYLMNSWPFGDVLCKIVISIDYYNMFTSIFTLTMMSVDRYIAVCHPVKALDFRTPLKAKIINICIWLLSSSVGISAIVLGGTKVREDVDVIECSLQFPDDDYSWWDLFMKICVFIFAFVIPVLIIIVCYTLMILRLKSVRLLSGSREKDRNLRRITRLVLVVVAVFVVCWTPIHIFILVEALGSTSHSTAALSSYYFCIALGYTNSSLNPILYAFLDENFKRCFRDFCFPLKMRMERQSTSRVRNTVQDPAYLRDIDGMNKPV

Row | Structure (SMILES) | Kb [1] | Kb [2] | Ki [3]
1 | CC1(C)OC[C@H](NC(=O)Nc2ccc(Br)cc2Br)[C@H](c2ccccc2)O1 [JNJ10397049] | 1.26 µM | 0.00316 µM | 
2 | COc1c(F)cccc1C(=O)N1C[C@@H](C)CC[C@H]1CNc1ccc(Br)cn1 [GSK1059865, 5-bromo-N-[(2S,5S)-1-(3-fluoro-2-methoxybenzoyl)-5-methylpiperidin-2-yl]methyl-pyridin-2-amine] | 0.00158 µM | 0.126 µM | 0.316 µM
